Data as given in patent US7462345B2, “Radionuclide labeling of vitamin B12 and coenzymes thereof” (Mayo Foundation for Medical Education and Research, priority 1995, dated 2008).
Values joined by “and” are separate entries in the source; they are usually repeats but may differ in a detail not shown here. Identical values can stand only once.

Key:
[1] = Biodistribution in mice at 24 hours, gamma well counting; format: in vivo, Balb-C mice
[2] = test system: transplanted sarcoma; test: Tumor imaging, mice with transplanted sarcoma, gamma well counting; format: in vivo; set-up: Fat activity, gamma well counting / Muscle activity, gamma well counting: unit not given here
Source text: All images for the in vivo studies were obtained on a GE 500 maxicamera using a LEAP collimator with a 20% window about the 140 keV energy peak of technetium, and a medium energy collimator with a 20% window about the 174 keV and 247 keV energy peaks of Indium. A 256×256 matrix with a dedicated pinnacle computer system was used to collect and analyze the data.

[3] = Gastrointestinal absorption after oral administration, modified Schillings test; format: in vivo, mice; set-up: Kidney activity, gamma well counting / Liver activity, gamma well counting / Pancreas activity, gamma well counting / Heart activity, gamma well counting / Spleen activity, gamma well counting: unit not given here
Description: B. Gastrointestinal Absorption: Methylcobalamin-b-(4-aminobutyl)-DTPA and DTPA alone were labeled as described above, with the exception that the 3 mCi Indium/300 μg/100 μl normal saline solutions were not diluted. […] The mice were sacrificed at 24 hrs, dissected, and studied as described above.
A modified Schillings test was performed on two mice. Specifically, each mouse received via subcutaneous and intraperitoneal administration, a 1000 μg loading dose of non-labeled methylcobalamin-b-(4-aminobutyl)amide-DTPA analogue. At 24 hrs, the mice were fed 2-3 drops of Indium-labeled methylcobalamin-b-(4-aminobutyl)amide-DTPA-complex. Urine and feces were collected from the three groups of mice after oral administration. The mice were sacrificed at 24 hours after ingestion of tracer and images and biodistribution data were obtained at that time.

[4] = 500 μCi intraperitoneal, 24 hours, mice 1-6
[5] = 500 μCi subcutaneously, mice 7-12
[6] = 500 μCi intraperitoneal, 24 hours, tumor mice 19-24
[7] = approximately 100 μCi tailvein injection, tumor mice 25-30
[8] = approximately 30 μCi orally, 24 hrs, mice 13-18
[9] = approximately 30 μCi orally, 24 hrs, mice 13-18, BKG = background

Row | Compound | Fat activity, gamma well counting [1, 4] | Heart activity, gamma well counting [1, 4] | Liver activity, gamma well counting [1, 4] | Lung activity, gamma well counting [1, 4] | Pancreas activity, gamma well counting [1, 4] | Heart activity, gamma well counting [1, 5] | Kidney activity, gamma well counting [1, 5] | Liver activity, gamma well counting [1, 5] | Lung activity, gamma well counting [1, 5] | Pancreas activity, gamma well counting [1, 5] | Heart activity, gamma well counting [2, 6] | Kidney activity, gamma well counting [2, 6] | Pancreas activity, gamma well counting [2, 6] | Tumor activity, gamma well counting [2, 6] | Heart activity, gamma well counting [2, 7] | Lung activity, gamma well counting [2, 7] | Kidney activity, gamma well counting [3, 8] | Liver activity, gamma well counting [3, 8] | Pancreas activity, gamma well counting [3, 8] | Fat activity, gamma well counting [3, 9] | also measured
1 | CC1=C2N=C(C=C3N=C(C(C)=C4[N-]C(C(CC(N)=O)C4(C)CCC(=O)NCC(C)OP(=O)([O-])OC4C(CO)OC(n5cnc6cc(C)c(C)cc65)C4O)C4(C)N=C1C(CCC(=O)NCCCCNC(=O)CN(CCN(CCN(CC(=O)[O-])CC(=O)[O-])CC(=O)[O-])CC(=O)[O-])C4(C)CC(N)=O)C(CCC(N)=O)C3(C)C)C(CCC(N)=O)C2(C)CC(N)=O.[111In+3].[CH2-]C1OC(n2cnc3c(N)ncnc32)C(O)C1O.[Co+3] (stereo not drawn) [adenosylcobalamin-b-(4-aminobutyl)-amide-DTPA-^111In] | 101.4 and 147.3 and 102.8 | 134.7 and 189.4 and 171.2 | 943.3 and 823.4 and 768.6 | 130.9 and 180.1 and 113.1 | 304.2 and 319.9 and 310.3 | 35.0 and 29.8 and 31.3 | 621.4 and 700.5 and 601.7 | 126.4 and 111.7 and 115.8 | 38.4 and 51.2 and 40.6 | 40.0 and 39.3 and 41.2 | 165.0 and 134.8 and 157.8 | 3886.9 and 3115.6 and 3592.8 | 445.0 and 242.7 and 439.0 | 954.7 and 1426.0 and 1183.1 | – | – | – | – | – | – | Kidney activity, gamma well counting [1, 4]: 3717.5 and 3299.5 and 3462.7; Spleen activity, gamma well counting [1, 4]: 433.1 and 405.3 and 366.8; Liver activity, gamma well counting [2, 6]: 691.0 and 464.8 and 675.0; Lung activity, gamma well counting [2, 6]: 318.8 and 230.0 and 335.2; Spleen activity, gamma well counting [2, 6]: 576.3 and 309.5 and 478.3; tumor activity relative to heart, lungs, fat, and muscle ([2]; IP and IV routes, 24 hours): 4-12 times; tumor activity relative to liver, spleen, and pancreas ([2]; IP and IV routes, 24 hours): two to four times greater activity; uptake within the transplanted sarcoma ([2]; at 24 hours, visually and by gamma well counting): significant amount
2 | O=C([O-])CN(CCN(CC(=O)[O-])CC(=O)[O-])CCN(CC(=O)[O-])CC(=O)[O-].[111In+3].[H+].[H+] [DTPA-^111In] | 12.6 and 19.5 and 18.8 | 10.3 and 6.9 and 12.5 | 56.9 and 41.5 and 66.1 | 6.2 and 6.0 and 10.5 | 13.4 and 13.0 and 14.1 | 5.6 and 5.0 and 4.8 | 119.4 and 117.3 and 110.1 | 24.0 and 25.5 and 23.2 | 5.4 and 5.3 and 5.0 | 6.0 and 6.7 and 5.9 | 5.0 and 8.0 and 9.7 | 116.5 and 180.7 and 231.2 | 7.1 and 11.3 and 13.9 | 52.8 and 69.3 and 73.1 | 0.94 and 0.61 and 0.85 | 1.7 and 0.87 and 0.93 | 0.64 and 0.54 and 0.59 | 0.28 and 0.21 and 0.30 | 0.93 and 0.96 and 0.61 | <BKG | Muscle activity, gamma well counting [1, 4]: 5.4 and 5.6 and 5.0; Spleen activity, gamma well counting [1, 5]: 19.5 and 19.0 and 18.1; activity per organ or tissue sample, times less when compared to the methyl and adenosylcobalamin analogs ([1]; mouse, in vivo): 5-12 times; Fat activity, gamma well counting [2, 6]: 13.7 and 17.9 and 19.2; Muscle activity, gamma well counting [2, 6]: 7.2 and 6.4 and 6.8; Fat activity, gamma well counting [2, 7]: 0.93 and 0.75 and 0.79; Kidney activity, gamma well counting [2, 7]: 14.0 and 9.9 and 10.2; Liver activity, gamma well counting [2, 7]: 1.6 and 1.3 and 1.4; Spleen activity, gamma well counting [2, 7]: 1.9 and 1.4 and 1.6; Tumor activity, gamma well counting [2, 7]: 5.0 and 2.8 and 3.4; concentration within the transplanted tumors, times less than that of adenosylcobalamin-DTPA-^111In ([2]; mouse, in vivo): 10-20 times; Spleen activity, gamma well counting [3, 8]: 0.62 and 0.67 and 0.48; Heart activity, gamma well counting [3, 9]: <BKG; Lung activity, gamma well counting [3, 9]: <BKG; Muscle activity, gamma well counting [3, 9]: <BKG; activity in the heart, lungs, muscle, or fat tissue samples ([3]; oral): No activity was detected; radioactivity in urine and stool ([3]; oral): detected in urine and stool by two hours; absorption from the gastrointestinal tract ([3]; oral administration, mice): also absorbed from the gastrointestinal tract, but to a lesser degree
3 | CC1=C2N=C(C=C3N=C(C(C)=C4[N-]C(C(CC(N)=O)C4(C)CCC(=O)NCC(C)OP(=O)([O-])OC4C(CO)OC(n5cnc6cc(C)c(C)cc65)C4O)C4(C)N=C1C(CCC(=O)NCCCCNC(=O)CN(CCN(CCN(CC(=O)[O-])CC(=O)[O-])CC(=O)[O-])CC(=O)[O-])C4(C)CC(N)=O)C(CCC(N)=O)C3(C)C)C(CCC(N)=O)C2(C)CC(N)=O.[111In+3].[CH3-].[Co+3] (stereo not drawn) [methylcobalamin-b-(4-aminobutyl)-amide-DTPA-^111In] | – | – | – | – | – | – | – | – | – | – | – | – | – | – | 21.7 and 11.4 and 16.9 | 34.4 and 19.9 and 21.3 | 4.3 and 4.1 and 3.1 | 0.82 and 0.80 and 0.73 | 0.75 and 0.76 and 1.1 | <BKG | Muscle activity, gamma well counting [2, 7]: 23.5 and 15.5 and 14.5; Pancreas activity, gamma well counting [2, 7]: 38.4 and 21.3 and 30.3; Heart activity, gamma well counting [3, 9]: 0.54 and 0.50; Muscle activity, gamma well counting [3, 9]: <BKG; activity in the urine by gamma well counting ([3]; oral, mice not flushed with non-labeled methylcobalamin-b-(4-aminobutyl)amide-DTPA): no discernable activity was detected; radioactivity in urine ([3]; oral, mice that underwent the modified Schillings test (flushed)): detectable radioactivity within their urine at one hour
